Series [1] addresses T1, R. toruloides DAO (Rhodotorula toruloides, UniProt P80324).
T1 sequence (P80324 25-368): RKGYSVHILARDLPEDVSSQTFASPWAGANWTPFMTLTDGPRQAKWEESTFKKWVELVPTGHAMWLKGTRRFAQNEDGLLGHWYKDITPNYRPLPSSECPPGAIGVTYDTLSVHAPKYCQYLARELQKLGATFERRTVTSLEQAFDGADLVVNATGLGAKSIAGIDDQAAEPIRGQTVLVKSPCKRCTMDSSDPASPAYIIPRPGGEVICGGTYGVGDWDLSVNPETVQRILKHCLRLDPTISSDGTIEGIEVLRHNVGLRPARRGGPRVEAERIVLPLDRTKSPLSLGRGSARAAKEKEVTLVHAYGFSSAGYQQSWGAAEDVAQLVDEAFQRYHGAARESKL
The series is described as follows: activity of purified DAO on amino acid substrates and Ceph C (relative activity, apparent Km). It is filed as biochemical. More on the design: made in house; host or cells: R. toruloides cells (native source, not recombinant). Particulars: for relative activity of the purified DAO on substrate / activity of the purified DAO on substrate: purified R. toruloides DAO.

For series [2], the target named is T1, R. toruloides DAO.
Series [3] addresses T1, R. toruloides DAO. Kind of series: biochemical.
Substrate in series [4]: CSCC[C@@H](N)C(=O)O
Kind of series: purified protein, by the assay type. To be noted: other: purified R. toruloides DAO.

Substrate in series [5]: C[C@@H](N)C(=O)O
The series is described as follows: purified protein, by the assay type. Particulars: other: purified R. toruloides DAO.

Substrate in series [6]: N[C@H](CO)C(=O)O
Kind of series: purified protein, by the assay type. Type of series: biochemical. To be noted: other: purified R. toruloides DAO.

Substrate in series [7]: [H][C@]12SCC(COC(C)=O)=C(C(=O)O)N1C(=O)[C@H]2NC(=O)CCC[C@@H](N)C(=O)O
Kind of series: purified protein, by the assay type. It is filed as biochemical. Particulars: other: purified R. toruloides DAO.

Substrate in series [8]: N[C@H](Cc1c[nH]c2ccccc12)C(=O)O
Kind of series: purified protein, by the assay type. Type of series: biochemical. To be noted: other: purified R. toruloides DAO.

Consider `CC(=O)OCC1=C(C(=O)O)N2C(=O)[C@@H](NC(=O)CCC[C@@H](N)C(=O)O)[C@H]2SC1` [Ceph C, cephalosporin C], for which the “activity on Ceph C as compared with activity against D-alanine” value at R. toruloides DAO [1] (purified DAO, SEQ ID NO: 3) is 95%.
Take `N[C@H](CC(=O)O)C(=O)O` [D-aspartic acid]: the “relative activity of the purified DAO on substrate” value on R. toruloides DAO [1] was < 20 % of maximal.
On the same count and under the same terms, under `N[C@H](CCC(=O)O)C(=O)O` [D-glutamic acid] stands < 20 % of maximal; under `NCCCC[C@@H](N)C(=O)O` [D-lysine], < 20 % of maximal.
Regarding `C[C@H](O)[C@@H](N)C(=O)O` [D-threonine], the “relative activity of the purified DAO on substrate” value at R. toruloides DAO [1] was < 20 % of maximal.
In the case of `N[C@H](Cc1c[nH]c2ccccc12)C(=O)O` [D-tryptophan], at R. toruloides DAO [1], the “activity of the purified DAO on substrate” value was “best substrate”.
The same measure, in the same setting: for `C[C@H](N)C(=O)O` [L-alanine] the value was “No activity”.
On the same count and under the same terms, under `CSCC[C@H](N)C(=O)O` [L-methionine] stands “No activity”; under `N[C@@H](Cc1ccccc1)C(=O)O` [L-phenylalanine], “No activity”.
On the same count and under the same terms, under `O=C(O)[C@@H]1CCCN1` [L-proline] stands “No activity”.
Regarding `O=C(O)c1ccccc1` [benzoic acid], the “enzyme inhibited in the presence of aromatic acid” value (“enzyme inhibited in the presence” for short) at R. toruloides DAO [2] is recorded as 49%.
Regarding `O=C(O)c1cccnc1` [nicotinic acid], the “enzyme inhibited in the presence” value on R. toruloides DAO [2] is recorded as 21%.
On R. toruloides DAO [3], `Nc1ccc(C(=O)O)cc1` [p-aminobenzoic acid] yielded a Ki of 300 µM. Moreover, the “enzyme inhibited in the presence” value on R. toruloides DAO [2] came to 72%.

B1: R. toruloides DAO (Rhodotorula toruloides) (protein)
chain: T1 sequence (P80324 25-368)
notes: made in house; host or cells: R. toruloides cells (native source, not recombinant)
For the molecule B1, the Km in series [4] was found to be 220 µM; in series [5], 680 µM; in series [6], 3400 µM; in series [7], 650 µM; in series [8], 180 µM.

The values are drawn from patent US5877013A, “Rhodosporidium D-amino acid oxidase” (Food Industry Research and Development Institute, priority 1997, dated 1999).
